# Experimental data: ChEMBL document CHEMBL1201862, “PubChem BioAssay data set” (2004)
#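 48-hour exposure; five concentrations; linearly interpolated endpoints. Here, GI50 denotes the concentration required for 50% inhibition of growth.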 Calls of active or inactive are those of the source. Rule as the data show it: active = GI50 up to about 1.1 µM and inactive = higher.
# Tests used:
# Experiment in all cases: NCI anticancer screen, dose series, 48 h
# [1] = test system: UO-31
# [2] = test system: OVCAR-8
# [3] = test system: OVCAR-4
# [4] = test system: IGROV-1
# [5] = test system: UACC-257
# [6] = test system: SF-295
# [7] = test system: NCI-H226
# [8] = test system: HOP-62
# [9] = test system: SK-MEL-5
# [10] = test system: RXF 393
# [11] = test system: SW-620
# [12] = test system: NCI-H460
# [13] = test system: COLO 205
# [14] = test system: U-251
# [15] = test system: CCRF-CEM
# [16] = test system: UACC-62
# [17] = test system: SF-539
# [18] = test system: CAKI-1
Compound,GI50 [1],GI50 [2],GI50 [3],GI50 [4],GI50 [5],GI50 [6],GI50 [7],GI50 [8],GI50 [9],GI50 [10],GI50 [11],GI50 [12],GI50 [13],GI50 [14],GI50 [15],GI50 [16],GI50 [17],GI50 [18]
COc1ccc(C(c2ccccc2)(c2ccc(OC)cc2)N2C(=O)NC3C(CCCCC(=O)NCCCCCCOP(OCCC#N)N(C(C)C)C(C)C)SCC32)cc1 (stereo not drawn),14.3 µM (inactive),29.2 µM (inactive),17.9 µM (inactive),18.7 µM (inactive),19.3 µM (inactive),17.1 µM (inactive),15 µM (inactive),17.6 µM (inactive),15.3 µM (inactive),11.7 µM (inactive),19.8 µM (inactive),16.8 µM (inactive),21.6 µM (inactive),15 µM (inactive),9.12 µM (inactive),10.9 µM (inactive),14.5 µM (inactive),
COc1ccc(Sc2ccccc2[N+](=O)[O-])cc1,23.4 µM (inactive),30.8 µM (inactive),65.3 µM (inactive),69.8 µM (inactive),36.9 µM (inactive),> 10 µM (inactive),13 µM (inactive),16.6 µM (inactive),45.9 µM (inactive),10.2 µM (inactive),3.65 µM (inactive),16.8 µM (inactive),5.69 µM (inactive),10.4 µM (inactive),22.8 µM (inactive),7.87 µM (inactive),26 µM (inactive),
COc1cc(OC)c2c(O)cc(CC(C)O)cc2c1 (stereo not drawn),> 100 µM (inactive),> 100 µM (inactive),> 100 µM (inactive),> 100 µM (inactive),> 100 µM (inactive),> 100 µM (inactive),,> 100 µM (inactive),> 100 µM (inactive),> 100 µM (inactive),> 100 µM (inactive),> 100 µM (inactive),> 100 µM (inactive),91.4 µM (inactive),> 100 µM (inactive),> 100 µM (inactive),> 100 µM (inactive),> 100 µM (inactive)
COc1cccc2c1C(=O)c1c(O)c3c(c(O)c1C2=O)C[C@@](O)(C(=O)CO)CC3OC1CC(NCCCC(OC(C)=O)OC(C)=O)C(O)C(C)O1 (stereo partly drawn),0.00151 µM (active),0.00196 µM (active),0.00151 µM (active),0.006 µM (active),0.00269 µM (active),0.00147 µM (active),0.00153 µM (active),0.00165 µM (active),,0.00172 µM (active),0.00202 µM (active),0.000895 µM (active),,0.00308 µM (active),0.00212 µM (active),0.000861 µM (active),0.00229 µM (active),0.00296 µM (active)
C=CCN1C(=O)NC(=O)/C(=C/c2c3ccccc3cc3ccccc23)C1=O,20.6 µM (inactive),22.4 µM (inactive),22.2 µM (inactive),> 10 µM (inactive),,17.4 µM (inactive),26.3 µM (inactive),17.3 µM (inactive),> 10 µM (inactive),15.3 µM (inactive),35.7 µM (inactive),19.1 µM (inactive),19.9 µM (inactive),16.7 µM (inactive),26.3 µM (inactive),18 µM (inactive),16.7 µM (inactive),19.5 µM (inactive)
C/C(=N\NC(=O)C[N+](C)(C)C)c1sc(-c2cccnc2)nc1C,41.2 µM (inactive),> 100 µM (inactive),,> 100 µM (inactive),> 100 µM (inactive),> 100 µM (inactive),> 100 µM (inactive),> 100 µM (inactive),> 100 µM (inactive),52.1 µM (inactive),> 100 µM (inactive),> 100 µM (inactive),> 100 µM (inactive),> 100 µM (inactive),> 100 µM (inactive),> 100 µM (inactive),> 100 µM (inactive),
NC(=O)c1ncn(Cc2ccccc2)c1CNC(N)=S,> 100 µM (inactive),> 100 µM (inactive),> 100 µM (inactive),> 100 µM (inactive),,> 100 µM (inactive),> 100 µM (inactive),,> 100 µM (inactive),> 100 µM (inactive),> 100 µM (inactive),> 100 µM (inactive),> 100 µM (inactive),> 100 µM (inactive),> 100 µM (inactive),> 100 µM (inactive),> 100 µM (inactive),
CN(C(=O)c1ccco1)C(=S)N1CCN(c2ccccn2)CC1,> 100 µM (inactive),> 100 µM (inactive),> 100 µM (inactive),> 100 µM (inactive),> 100 µM (inactive),> 100 µM (inactive),> 100 µM (inactive),> 100 µM (inactive),> 100 µM (inactive),> 100 µM (inactive),> 100 µM (inactive),> 100 µM (inactive),> 100 µM (inactive),> 100 µM (inactive),> 100 µM (inactive),> 100 µM (inactive),> 100 µM (inactive),> 100 µM (inactive)
CN1CCCS/C1=C1/SC(=S)N(c2ccccc2)C1=O,> 100 µM (inactive),> 100 µM (inactive),> 100 µM (inactive),> 100 µM (inactive),> 100 µM (inactive),> 100 µM (inactive),> 100 µM (inactive),> 100 µM (inactive),> 100 µM (inactive),> 100 µM (inactive),> 100 µM (inactive),> 100 µM (inactive),> 100 µM (inactive),> 100 µM (inactive),> 100 µM (inactive),> 100 µM (inactive),> 100 µM (inactive),> 100 µM (inactive)
NC(CCCNc1ccc(O)cc1)C(=O)O (stereo not drawn),> 60 µM (inactive),33.7 µM (inactive),17.6 µM (inactive),26.4 µM (inactive),27.8 µM (inactive),> 100 µM (inactive),> 100 µM (inactive),> 80.2 µM (inactive),25.8 µM (inactive),26.1 µM (inactive),21.3 µM (inactive),> 59.6 µM (inactive),> 54.2 µM (inactive),> 100 µM (inactive),23.4 µM (inactive),18.5 µM (inactive),35.2 µM (inactive),48.2 µM (inactive)
CN1Cc2ccccc2C2(COc3ccccc3C2=O)C1 (stereo not drawn),57.4 µM (inactive),> 100 µM (inactive),92.3 µM (inactive),28.7 µM (inactive),62.7 µM (inactive),> 100 µM (inactive),35.7 µM (inactive),> 100 µM (inactive),56.2 µM (inactive),> 100 µM (inactive),> 100 µM (inactive),> 100 µM (inactive),,> 100 µM (inactive),74.3 µM (inactive),> 100 µM (inactive),> 100 µM (inactive),> 100 µM (inactive)
Cn1cc2ccccc2c1-c1nc(F)nc(Nc2ccc(N)cc2)n1,17.3 µM (inactive),21 µM (inactive),23.1 µM (inactive),12.7 µM (inactive),17.3 µM (inactive),16.2 µM (inactive),16.5 µM (inactive),16.6 µM (inactive),11.5 µM (inactive),15.3 µM (inactive),14.8 µM (inactive),13.5 µM (inactive),> 10 µM (inactive),8.28 µM (inactive),12.7 µM (inactive),,15.8 µM (inactive),15 µM (inactive)
